According to patent publication US6982285B2, “Control of parasites attached to skin of fish” (Novartis Animal Health US, Inc., priority 1999, dated 2006):

Legend:
sea lice = details: in salt water (printed for trichlorfon); cited from earlier work
salmon louse [1] = experiment: In vivo preliminary test for activity against the salmon louse following manual injection; parameters: species or system salmon louse on Atlantic salmon; details: naturally infected Atlantic salmon; single dose 40 mg fluazuron/kg body weight injected by hand into muscle tissue below dorsal fin; inspected 24, 48 and 72 hours later; at latest after 72 hours
Experimental: 1. In Vivo Preliminary Test for Activity Against the Salmon Louse Following Manual […]
20 naturally infected Atlantic salmon of various sizes from a fish farm are transferred to a well-aerated seawater aquarium for acclimatisation. They are left there for 3 days and fed daily with the usual food. On the fourth day, they are caught individually with a fish basket and quickly weighed. Each fish is injected by hand using an injection needle with a single dose, according to formulation example 1, of 40 mg fluazuron/kg body weight into the muscle tissue below the dorsal fin. The treated fish are returned to their aquarium.

salmon louse [2] = experiment: Semi-automated in vivo test for activity against the salmon louse (needleless inoculation gun); parameters: species or system salmon louse on Atlantic salmon; details: Atlantic salmon artificially infected with 5 pre-adult, 5 adult female and 5 adult male salmon lice; 45 mg fluazuron/kg body weight, needleless inoculation gun below dorsal fin; after 24 hours
Excerpt: 2. Semi-Automated In Vivo Test for Activity Against the Salmon Louse.
Two well-aerated seawater aquariums, each of 5000 liter content, are set up parallel to one another at a distance of 2 m, with one being 10 cm higher than the other. The upper aquarium is provided with a kind of overflow which opens into a plexiglass channel which is open at the top and has a square inner cross-section of 10 cm. The upper end of this channel is secured by a movable grid and rests on the edge of the lower aquarium. Between the two aquariums, there is slight gradient. In the middle of the channel, two wire grids are attached with a 30 cm gap across the current, in such a way that they are either used as a water-permeable barrier or can be opened upwards on a hinge by a lever. At the bottom of the upper aquarium, there is an electrically controlled tail lift. When this is raised, the volume of water above it is diminished by reducing the depth of water. In addition, the upper aquarium contains a water feed which is secured by a grid and the lower aquarium has outlet holes. Water flows constantly from the upper to the lower aquarium. 200 Atlantic salmon of the same age are introduced into the upper aquarium and are each artificially infected with 5 pre-adult, 5 adult female and 5 adult male salmon lice. […]

## COP(=O)(OC)OC=C(Cl)Cl [dichlorvos, 2,2-dichloroethenyl-dimethylphosphate]
Sea lice
  concentration required / effective against sea lice: ≥ 1 ppm

## O=C(NC(=O)c1c(F)cccc1F)Nc1ccc(Cl)c(Oc2ncc(C(F)(F)F)cc2Cl)c1 [fluazuron, 1-[4-chloro-3-(3-chloro-5-trifluoromethyl-2-pyridyloxy)phenyl]-3-(2,6-difluorobenzoyl)urea]
Salmon louse [1]
  parasite infestation / number of surviving parasites: all the adult and pre-adult stages have been killed
Salmon louse [2]
  parasite infestation / number of surviving parasites: all the female and male adults and pre-adult stages have been killed

## COP(=O)(OC)C(O)C(Cl)(Cl)Cl (stereo not shown) [trichlorfon, dimethyl-2,2,2-trichloro-1-hydroxyethyl-phosphonate]
Sea lice
  concentration required / effective against sea lice: 300 ppm
